Assay results taken from PMC7136958, “Targeting the pregnane X receptor using microbial metabolite mimicry” (EMBO Molecular Medicine, 2020).
Where “and” joins values, the source holds several entries; their conditions need not be identical. Equal values may be shown once.

Experiments:
[1] = target: T1, P300 (Homo sapiens, UniProt Q09472); assay: Histone acetyltransferase assay p300 (Reaction Biology); format: biochemical
T1 construct: or p300 (aa 1284-1672); purchased Reaction Biology Corp; host or cells: E. coli
T1 sequence (Q09472 1284-1672): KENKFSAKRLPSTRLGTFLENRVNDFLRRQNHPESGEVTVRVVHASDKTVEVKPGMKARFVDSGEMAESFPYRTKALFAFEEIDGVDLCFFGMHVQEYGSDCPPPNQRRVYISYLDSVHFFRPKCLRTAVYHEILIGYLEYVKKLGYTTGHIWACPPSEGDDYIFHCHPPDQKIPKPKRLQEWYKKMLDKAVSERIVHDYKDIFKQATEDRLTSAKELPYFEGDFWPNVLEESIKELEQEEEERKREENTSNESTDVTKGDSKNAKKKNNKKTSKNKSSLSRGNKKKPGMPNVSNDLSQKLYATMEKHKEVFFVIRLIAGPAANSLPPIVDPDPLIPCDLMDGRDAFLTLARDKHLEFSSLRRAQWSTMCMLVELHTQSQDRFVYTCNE
Description: Software Tool and reprinted with permission from KINOME scan®, a division of DiscoveRx […]
The following […] assays (HDAC, SIRT1, PRMT1, PARP1, p300, pCAF) were performed by Reaction Biology Corp. FKK6 was screened at a single concentration of 10 μM in duplicate in two separate experiments. The appropriate controls for the individual assays are published. The overall […]
enzyme activity in the assay is reported as a % activity in DMSO control wells. Control IC50 […]
Briefly, for the Sirtuin (SIRT1) assay, human SIRT1 (GenBank
Accession No. NM012238) full -length N-terminal His-tag protein (MW 83.2 kDa) was purified after expression in E. coli. […]
8), 50 mM NaCl, 0.1 mM EDTA, 1 mM DTT, 1 mM PMSF, and 1% DMSO. […] The radioactivity in mixture is detected on washed filter paper using a scintillation counter. […]
The 2X HDAC substrate is a fluorogenic acetylated peptide from p53 (residues 379 - 38 2 RHKK(Ac)AMC) which is mixed in with the enzyme-compound complex and incubated for 1-2 h at 30 °C. In the development step, a proprietary developer with trichostatin A (or TMP269) is added to stop the reaction and to generate fluorescent color which is read using an EnVision Multilabel Plate Reader (Perkin Elmer) (Ex 360 nm/ Em 460 nm). […]

[2] = test system: hPXR mice; assay: DSS-induced acute colitis in hPXR mice; format: in vivo, mouse
Description: For these studies, 7‐ to 8‐week‐old female (DeVoss & Diehl, 2014) hPXR (mice expressing the human PXR gene) and pxr ^−/− mice (C57BL/6 background) were bred and each genotype was separated into two treatment groups using a random allocation method via coin toss—(i) n = 3 control (0.8% DMSO in 100 μl drinking water) and (ii) n = 3 FKK6 (200 μM (0.4 mg/kg/day) in 0.8% DMSO in 100 μl drinking water) administered once per day via oral gavage, and via intrarectal gavage for a total of 10 consecutive days The dose was chosen based on the extrapolation of the total dose delivered over 10 days to mice (~ 4 mg/kg), which is equivalent to that delivered to mice for determining target gene expression over 3–5 doses (3–5 mg/kg). […] Fecal pellets were collected prior to the initiation of the treatment protocol. All mice were starved overnight (12 h) to allow for smooth intrarectal delivery; however, the mice were allowed to feed ad libitum during the day. After 10 days, the mice were sacrificed and organs/tissues/feces harvested for further study. Prior to necropsy, mice were administered FITC‐dextran, and mouse serum was collected for the FITC‐dextran assay as previously described (Vetizou et al, 2015). The experimenter was not blinded to treatment allocation; however, the pathologist (KS) evaluating histologic scores was blinded to treatment allocation. All studies were approved by the Institute of Animal Studies at the Albert Einstein College of Medicine, INC (IACUC # 20160706 and preceding protocols). Colitis scoring was performed as previously published, and post‐examination masking was conducted (Kim et al, 2012; Meyerholz & Beck, 2018).
For RT–qPCR of colon tissue for cytokine expression data, new experiments were conducted with 3% DSS and the identical FKK6 dose (n = 3 mice/group) and scheduled as above. RT–qPCR was performed using PowerUp™ SYBR® Green Master Mix (A25741, Thermo Fisher Scientific) and primers specific for IL‐10, TNF‐α, TNFR2, and […]. Each target gene was analyzed in quadruplicate. Normalizing controls included GAPDH (used to illustrate data) and TBP.

[3] = FKK6 200 μM, day 10, individual mice

## C#CCC(O)(c1ccncc1)c1cc2ccccc2n1S(=O)(=O)c1ccccc1 (centres unmarked) [FKK6]
[1]; 10 μM, substrate Histone H3, replicates data1/2 Exp 1/2
  % Enzyme Activity to DMSO controls: 97.73% and 98.72% and 95.38%
[1]; substrate Histone H3, replicates data1/2 Exp 1/2, read-out: % Enzyme Activity to DMSO controls
  remaining activity at 10 µM: 100%
[2]; 3% DSS, FKK6 vs controls
  colon tissue IL-10 mRNA: significant increase
  colon tissue TNF-α mRNA: decrease
  colon tissue TNFR2 mRNA: decrease
[2]; 3% DSS, FKK6 vs vehicle
  colon tissue IL-17f mRNA: significant reduction
[2]; FKK6 200 μM
  fecal lipocalin 2: only a trend in the reduction
  serum FITC-dextran: only a trend in the reduction
[2]; FKK6 200 μM oral gavage plus intrarectal, once daily 10 days, individual mice
  % weight loss from baseline (day 1 vs. day 10): significantly reduced weight loss and 20% and 16%
[2]; [3]
  colon length: increased colon length and 5.2 cm and 5.6 cm and 5.1 cm
  inflammation score: substantially decreased and 3 and 5
